These results are taken from BindingDB's records for doi:10.1021/acsmedchemlett.0c00444 (Virginia Commonwealth University, 2020).

For orientation: EC50 means the midpoint of the concentration-response curve.

The structures appear in SMILES notation.

A short description of the assay: Inhibition of HIV1 3B reverse transcriptase infected in human GHOST CXCR4 cells assessed as reduction in viral replication incubated for 60 to 90 mins in presence of DTT and TTP by liquid scintillation counter.
For the compound `CNC(=O)COCC(=O)NCCCCNC(=O)COCC(=O)NC[C@H]1CC[C@H](/N=C(\NC2CCCCC2)SCC2=CSC3=NC(C)(C)CN23)CC1`, the concentration for a half-maximal effect (EC50) was determined as 144000 nM. For `CC1(C)CN2C(CS/C(=N\C3CCCCC3)NC3CCCCC3)=CSC2=N1` [(6,6-dimethyl-5,6-dihydroimidazo[2,1-b][1,3]thiazol-3-yl)methyl N,N'-dicyclohexylimidothiocarbamate], the EC50 was found to be 22 nM. Under `CC1(C)CN2C(CS/C(N)=N\[C@H]3CC[C@H](CNC(=O)COCC(=O)NCCCCNC(=O)COCC(=O)N[C@@H]4CC[C@@]5(O)[C@H]6Cc7ccc(O)c8c7[C@@]5(CCN6CC5CC5)[C@H]4O8)CC3)=CSC2=N1` stands 960 nM.
